Assay results from patent US6790629B2 (The Regents of the University of California, priority 1997, dated 2004).

What was measured:
[1] = target: T1, VR1 (Rattus norvegicus, UniProt O35433); test: Whole-cell two-electrode voltage clamp of VR1-expressing Xenopus oocytes (vanilloid agonists and antagonists); format: cell-based; settings: for recovery of current response following agonist removal: washout; for Hill coefficient: from agonist concentration-response analysis in VR1-expressing oocytes
T1 construct: open reading frame encoding a protein of 838 amino acids; expressed in transfected cells; host or cells: Xenopus laevis oocytes injected with VR1 cRNA
T1 sequence (O35433 whole entry): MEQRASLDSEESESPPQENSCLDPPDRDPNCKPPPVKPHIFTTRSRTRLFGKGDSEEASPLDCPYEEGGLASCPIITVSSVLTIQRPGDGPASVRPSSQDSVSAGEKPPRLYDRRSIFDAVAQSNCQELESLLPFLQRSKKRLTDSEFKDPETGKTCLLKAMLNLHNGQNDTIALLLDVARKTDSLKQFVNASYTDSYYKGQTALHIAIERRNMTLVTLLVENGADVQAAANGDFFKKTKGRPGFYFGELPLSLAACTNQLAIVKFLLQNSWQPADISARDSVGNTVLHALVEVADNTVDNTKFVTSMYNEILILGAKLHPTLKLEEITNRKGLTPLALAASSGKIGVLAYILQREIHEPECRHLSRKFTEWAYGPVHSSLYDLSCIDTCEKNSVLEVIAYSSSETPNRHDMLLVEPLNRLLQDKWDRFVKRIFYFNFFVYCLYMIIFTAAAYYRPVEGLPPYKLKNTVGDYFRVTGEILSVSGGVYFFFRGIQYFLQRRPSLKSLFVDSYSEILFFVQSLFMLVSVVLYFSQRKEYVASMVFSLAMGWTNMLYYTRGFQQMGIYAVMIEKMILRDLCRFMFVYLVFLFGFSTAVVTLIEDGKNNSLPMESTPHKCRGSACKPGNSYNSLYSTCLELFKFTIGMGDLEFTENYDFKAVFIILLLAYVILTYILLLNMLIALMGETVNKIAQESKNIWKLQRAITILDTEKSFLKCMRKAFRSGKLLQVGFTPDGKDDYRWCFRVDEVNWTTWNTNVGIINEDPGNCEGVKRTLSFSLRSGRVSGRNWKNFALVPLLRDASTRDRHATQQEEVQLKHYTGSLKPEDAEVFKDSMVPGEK
Description: Briefly, cRNA transcripts were synthesized from Not1-linearized VR1 cDNA templates using T7 RNA polymerase 17. Defolliculated Xenopus laevis oocytes were injected with 0.5-5 ng VR1 cRNA. Four to seven days after injection, two electrode voltage clamp recording was performed (Ehold=−60 mV for IC50 curve and thermal stimulation experiments, and […] for all other experiments) using a Geneclamp 500 amplifier (Axon Instruments) and a MacLab A/D converter (Maclab). The recording chamber was perfused at a rate of 2 ml/min with frog ringers solution containing (mM) 90 NaCl; 1.0 KCl, 2.4 NaHCO3, 0.1 BaCl2, 1.0 MgCl2, and 10 HEPES, pH 7.6. at room temperature. Prior to performing the store-operated current assays, oocytes were incubated for 1-2 hrs in calcium-free, barium-free frog ringers solution containing 1 mM EGTA and 1 μM Thapsigargin. During voltage clamp recording, these oocytes were intermittently exposed to frog ringer's solution containing 2 mM Ca2+ and no EGTA to detect calcium-dependent currents (15 second pulses at 2 minute intervals) (Petersen et al. 1995 Biochem J. 311:4144).
VR1 was expressed in Xenopus oocytes as described above (Example 3), except that CaCl2 (2 mM) was used in place of BaCl2 when generating the capsazepine inhibition curve. […] Membrane currents were recorded in the whole cell voltage clamp configuration (Vhold=−40 mV).

[2] = test system: chick orthologue of rat VR1 (pCVR2); test: Electrophysiological and calcium-imaging analysis of HEK293 cells transfected with pCVR2; format: cell-based
[3] = test system: water-injected oocytes; test: Two-electrode voltage clamp of water-injected control oocytes: capsaicin, heat, heat plus ruthenium red; format: cell-based, Xenopus
Description: (§1) To determine whether VR1 could mediate similar responses to heat in a different cellular environment, heat activation of VR1 was tested in the oocyte system. Oocytes injected with either VR1 cRNA or water were subjected to two-electrode voltage-clamp (Vhold=−60 mV) while the temperature of the perfusing buffer was raised from 22.7° C. to the level indicated, then held constant for 60 sec. (VR1, n =8; water, n=6 independent cells). The asterisk indicates a significant difference from water-injected oocytes (T-test, P<0.0005).
(§2) The current tracings shown in FIG. 17 were generated from representative VR1- or water-injected oocytes (Vhold=−60 mV) during successive applications of the indicated stimuli.

[4] = target: T1, VR1; test: Two-electrode voltage clamp of VR1-injected oocytes: capsaicin, heat, heat plus ruthenium red; format: cell-based; settings: n=5; for mean inward current response ± s.e.m.: Vhold=-60 mV
Description: as §1, with “cells).” for “cells). The asterisk indicates a significant difference from water-injected oocytes (T-test, P<0.0005).”
as §2

[5] = target: T2, VRRP-1 (Rattus norvegicus, UniProt Q9WUD2); test: Activation of VRRP-1 by capsaicin
T2 sequence (Q9WUD2 1-761): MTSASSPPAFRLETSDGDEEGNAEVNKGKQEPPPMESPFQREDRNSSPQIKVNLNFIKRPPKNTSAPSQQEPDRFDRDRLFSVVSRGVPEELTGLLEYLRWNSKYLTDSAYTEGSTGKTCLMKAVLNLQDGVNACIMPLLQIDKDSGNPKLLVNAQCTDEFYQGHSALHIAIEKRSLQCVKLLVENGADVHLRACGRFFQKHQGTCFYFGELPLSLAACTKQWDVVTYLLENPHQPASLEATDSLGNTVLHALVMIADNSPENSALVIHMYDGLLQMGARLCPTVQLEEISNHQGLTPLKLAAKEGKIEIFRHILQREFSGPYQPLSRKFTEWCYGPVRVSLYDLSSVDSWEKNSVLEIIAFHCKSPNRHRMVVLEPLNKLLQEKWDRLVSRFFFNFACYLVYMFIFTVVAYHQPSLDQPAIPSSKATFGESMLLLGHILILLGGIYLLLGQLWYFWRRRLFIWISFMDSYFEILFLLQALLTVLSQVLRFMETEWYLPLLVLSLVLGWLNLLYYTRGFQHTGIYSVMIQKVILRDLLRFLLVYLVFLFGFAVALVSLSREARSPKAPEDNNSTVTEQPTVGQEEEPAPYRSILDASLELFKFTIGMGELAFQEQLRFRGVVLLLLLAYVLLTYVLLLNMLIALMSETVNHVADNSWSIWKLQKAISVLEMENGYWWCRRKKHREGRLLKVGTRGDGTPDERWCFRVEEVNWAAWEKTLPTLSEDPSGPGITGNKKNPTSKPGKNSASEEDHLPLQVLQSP

[6] = target: T1, VR1; test: Whole-cell patch clamp of VR1-transfected HEK293 cells, desensitization of capsaicin-evoked current; format: cell-based
Description: Patch-clamp recordings were carried out with transiently transfected HEK293 cells at 22° C. Standard bath solution for whole-cell recordings contained (mM) 140 NaCl, 5 KCl, 2 MgCl2, 2 CaCl2, 10 HEPES, 10 glucose, pH 7.4 (adjusted with NaOH). In calcium-free bath solution, CaCl2 was removed and 5 mM EGTA was added.
Bath solution for outside-out patch recordings and pipette solution for inside-out patch recordings contained (mM) 140 NaCl, 10 HEPES, pH 7.4 (adjusted with NaOH). Bath solution for inside-out patch recordings and pipette solutions for outside-out patch recordings and ion substitution experiments contained: (mM) 140 NaCl, 10 HEPES, 5 EGTA, pH 7.4 (adjusted with NaOH). Pipette solution for whole-cell recordings contained (mM) 140 CsCl (or 130 CsAspartate and 10 NaCl), 5 EGTA, 10 HEPES, pH 7.4 (adjusted with CsOH).
Whole-cell recording data were sampled at 20 kHz and filtered at 5 kHz for analysis (Axopatch 200 amplifier with pCLAMP software, Axon Instruments). Single-channel recording data were sampled at 10 kHz and filtered at 1 kHz. Permeability ratios for monovalent cations to Na (PX/PNa) were calculated as follows:

[7] = target: T1, VR1; test: Hydrogen ion potentiation of capsaicin response in VR1-expressing oocytes; format: cell-based; settings: 10 μM capsaicin
Source text: To address this possibility, the effects of hydrogen ions on the cloned vanilloid receptor were examined using the oocyte expression system. […] The pH of the bath solution was changed during the experiment (as indicated by the horizontal bars in FIG. 13).

COc1ccc(CCCOC(Cn2ccnc2)c2ccc(OC)cc2)cc1 (centres unmarked) [SKF 96365]
effect on capsaicin-evoked currents ([1]; SKF 96365 20 μM, VR1-expressing oocytes): no effect

C=C(C)[C@]12C[C@@H](C)[C@@]34O[C@](Cc5ccccc5)(O[C@@H]1[C@@H]3C=C(COC(=O)Cc1ccc(O)c(OC)c1)C[C@]1(O)C(=O)C(C)=C[C@@H]41)O2 [resiniferatoxin]
response of the encoded protein ([2]; high doses of resiniferatoxin): responds
EC50 [1]: 39.1 nM
potency relative to capsaicin ([1]; EC50 comparison in VR1-expressing oocytes): approximately 20 fold
recovery of current response following agonist removal ([1]; VR1-expressing oocytes): often failed to recover
Hill coefficient [1]: 1.95

Oc1cc2c(cc1O)CN(C(=S)NCCc1ccc(Cl)cc1)CCC2 [capsazepine]
IC50 ([1]; VR1-expressing oocytes, CaCl2 2 mM in place of BaCl2, read-out: IC50, block of capsaicin-evoked responses): 283 nM
antagonism of responses to resiniferatoxin (50 nM) ([1]; capsazepine 5 μM): reversibly antagonized
block of capsaicin activity (cap; 0.6 μM) ([1]; capsazepine 10 μM): reversible

N.N.N.N.N.N.N.N.N.N.N.N.N.N.[Cl-].[Cl-].[Cl-].[Cl-].[Cl-].[Cl-].[O-2].[O-2].[Ru+3].[Ru+3].[Ru+4] [ruthenium red]
inhibition of heat response ([3]; ruthenium red 10 μM, n=5): 21±26%
mean inward current response ± s.e.m. ([4]; heat (50° C.) plus ruthenium red 10 μM): 243±47 nA
inhibition of heat response ([4]; ruthenium red 10 μM, heat 50° C., VR1-injected oocytes): 88±2%
antagonism of responses to resiniferatoxin (50 nM) ([1]; ruthenium red 10 μM): reversibly antagonized
block of capsaicin-evoked responses (cap; 0.6 μM) ([1]; ruthenium red 10 μM): blocked capsaicin-evoked responses

COc1cc(CNC(=O)CCCC/C=C/C(C)C)ccc1O [capsaicin]
response to capsaicin [3]: no response
mean inward current response ± s.e.m. ([4]; capsaicin 1 μM): 1221±148 nA
activation of VRRP-1 [5]: does not appear to be activated
response of the encoded protein ([2]; capsaicin): not to capsaicin
decrease of response between first and third applications ([6]; absence of extracellular calcium, n=3): 4.7±2.3%
decrease of response between first and third applications (desensitizing component) ([6]; calcium-containing bath solution, n=5): 87±4.3%
effect of reduced pH on capsaicin response [7]: did not augment
recovery of current response following agonist removal ([1]; VR1-expressing oocytes): returned rapidly to baseline
Hill coefficient [1]: 2.08
